Patent EP4578857A1, “CRYPTOLEPINE SALT DERIVATIVE, AND PREPARATION METHOD THEREFOR AND USE THEREOF” (Nankai University, priority 2023, dated 2025)
Where two headings read alike, the source gives them in different places.

How the values were obtained:
Assay type in all cases: in vivo
[1] = test system: rice sheath blight strains; assay: Bactericidal activity test: resistance to rice sheath blight (live pot test); conditions: for pest or weed control at 400 µg/mL: Oryza sativa, 144 h
Description: Bactericidal activity test, the determination procedure is as follows: Test of resistance to rice sheath blight: Select uniformly growing rice seedlings and spray them on the leaves at the set concentration, set a water sprayring group as blank control, every treatment was repeated twice. After 24h, the rice seedlings were inoculated with rice sheath blight strains and placed at room temperature (25±4°C) for normal management after inoculation. The prevention and control effect was investigated by visual inspection 6 days after inoculation.

[2] = test system: tobacco Mosaic virus (TMV); assay: Anti-TMV activity: live protection function; conditions: for inhibition at 500 µg/mL: Tobacco mosaic virus, read-out: Relative inhibition rate (%) Live protection function; for antiTMV activity / TMV activity: 500µg/mL, Table 4 (all three modes); for antiTMV activity: compared with commercial Ningnanmycin; for TMV activity: compared with ribavirin
Description: (§1) Determination of anti-tobacco Mosaic virus (TMV) activity by the following procedure:
(§2) The virus crude extract was centrifuged with polyethylene glycol at twice and refrigerated at 4°C for use. The absorbance of 260nm wavelength was determined by ultraviolet spectrophotometer, and the virus concentration was calculated according to the formula. Virus concentration(mg/ml) = (A260 × dilution ratio)(/E)^0.10 1cm^260nm . [formula]
(§3) After weighing, cryptolepine salt derivative, ningnanmycin and the original drug of ribavirin were dissolved in DMF to obtain 1×10^5µg/mL mother solution, and then diluted to the required concentration with 1‰ Tween 80 aqueous solution.
Select the 3-5 leaf stage of tobacco Xanthi nc with uniform growth, spray the whole plant, repeat each treatment 3 times, and set 1‰ Tween80 aqueous solution as control. 24h later, the leaf surface was coated with emery (500 mesh), the disease venom was dipped with a brush, and the whole leaf surface was gently rubbed twice along the direction of the branch pulse by using the brush, the leaf was supported by palm of hand, the virus concentration was 10µg/mL, and the leaf was washed by water after inoculation. After 3 days, the number of disease spots was recorded and the prevnetion and control effect was calculated.

[3] = test system: tobacco Mosaic virus (TMV); assay: Anti-TMV activity: live treatment effect; conditions: for inhibition at 500 µg/mL: Tobacco mosaic virus, 72 h, read-out: Relative inhibition rate (%) Live treatment effect
Description: as §1, §2, §3
Select the 3-5 leaf stage of tobacco Xanthi nc with uniform growth, use a brush to vaccinate the virus in the whole leaf, the virus concentration is 10µg/mL, and the leaf was washed with running water after inoculation. After the leaves were dried, the whole plant was sprayed with test sample, repeated 3 times every treatment, and 1‰ Tween 80 aqueous solution was set as control. After 3 days, the number of disease spots was recorded and the prevnetion and control effect was calculated.

[4] = test system: tobacco Mosaic virus (TMV); assay: Anti-TMV activity: living passivation activity test; conditions: for inhibition at 500 µg/mL: Tobacco mosaic virus, read-out: Relative inhibition rate (%) Living passivation activity test
Description: as §1, §2, §3
Select the 3-5 leaf stage of tobacco Xanthi nc with uniform growth, mix the test sample agent with the same volume of virus juice to passivate for 30min, friction inoculation, virus concentration 20µg/mL, the leaf was washed with running water after inoculation, repeat 3 times, set 1‰ Tween 80 aqueous solution as control. 3 days later, the number of disease spots was calculated. [formula]
Anti-tobacco Mosaic virus passivation activity test of all compounds was at a treatment dose of 500µg/mL. The positive control was the commercial anti-plant virus agent viriazole.

[5] = read-out: Resistance to rice sheath blight (%)/400mg/L
[6] = 400mg/L leaf spray on rice seedlings, inoculated after 24h, visual inspection 6 days after inoculation, read-out: Resistance to rice sheath blight (%)/400mg/L
[7] = read-out: bactericidal activity against rice sheath blight
[8] = Treatment dose 500 mg/L, tobacco Xanthi nc sprayed 24h before inoculation, virus 10µg/mL, disease spots counted after 3 days
[9] = Treatment dose 500 mg/L, tobacco Xanthi nc inoculated (virus 10µg/mL), then sprayed, disease spots counted after 3 days
[10] = Treatment dose 500 mg/L, sample mixed with virus juice for 30min, then inoculated on tobacco Xanthi nc, virus 20µg/mL, 3 days

Structure (SMILES) | pest or weed control at 400 µg/mL [1, 5] [%] | inhibition at 500 µg/mL [2] [%] | inhibition at 500 µg/mL [3] [%] | inhibition at 500 µg/mL [4] [%] | further results
Cc1ccc(S(=O)(=O)n2c3ccccc3c3c2cc2cc(Cl)ccc2[n+]3C)cc1 [Example 12] | 40 | 23.4 ± 3.3 | 19.1 ± 1 | 20.3 ± 2.1 | –
COc1ccc2c(c1)cc1c(c3ccccc3n1S(=O)(=O)c1ccc(C)cc1)[n+]2C [Example 10] | 30 | 17 ± 1 | 10.2 ± 0.7 | 19.1 ± 0.2 | –
CCNCCNc1c2ccccc2[n+](C)c2c1[nH]c1ccccc12 [Example 37] | – | 31.6 ± 3.2 | 20.7 ± 1.2 | 33.6 ± 0.8 | pest or weed control at 400 µg/mL [1, 6]: 40%
Cc1ccc(S(=O)(=O)n2c3ccc(Br)cc3c3c2cc2ccccc2[n+]3C)cc1 [Example 6] | 40 | 48.4 ± 4.7 | 45.2 ± 3.6 | 41 ± 2.2 | antiTMV activity [2]: comparable to that of commercial Ningnanmycin; TMV activity [2]: better TMV activity than the ribavirin
Cc1ccc(S(=O)(=O)n2c3ccccc3c3c2cc2ccccc2[n+]3CC(C)(C)C)cc1 [Example 20] | 55 ± 5 | 51.3 ± 3.5 | 48.5 ± 3 | 53 ± 2.1 | pest or weed control at 400 µg/mL [1, 7]: > 50%; antiTMV activity [2]: comparable to that of commercial Ningnanmycin; TMV activity [2]: better TMV activity than the ribavirin
CCCCCCCCCCCCNc1c2ccccc2[n+](C)c2c1[nH]c1ccccc12 [Example 25] | – | – | – | – | Resistance to rice sheath blight (%)/400mg/L ([1]; 400mg/L leaf spray on rice seedlings, inoculated after 24h, visual inspection 6 days after inoculation): 20±0%; Relative inhibition rate (%) Live protection function [2, 8]: 27.3±3.0%; Relative inhibition rate (%) Live treatment effect [3, 9]: 22.1±1.1%; Relative inhibition rate (%) Living passivation activity test [4, 10]: 35.1±0.1%
Cc1ccc(S(=O)(=O)n2c3ccc(C#N)cc3c3c2cc2ccccc2[n+]3C)cc1 [Example 8] | 30 | 18.8 ± 4.2 | 23.1 ± 0.5 | 18.6 ± 1.2 | –
Cc1ccc(S(=O)(=O)n2c3ccccc3c3c2cc2ccccc2[n+]3CC2CCCCC2)cc1 [Example 19] | 20 | 47 ± 2.8 | 42.4 ± 4.9 | 44.2 ± 3.4 | TMV activity [2]: better TMV activity than the ribavirin
Cc1nc(C(F)(F)F)c(C(=O)Nc2c(Br)cc(OC(F)(F)F)cc2Br)s1 [Thifluzamide, reference compound] | – | – | – | – | pest or weed control at 400 µg/mL [1, 6]: 100%
Cn1c2c3cc(Br)ccc3nc-2cc2ccccc21 [Reference Example 1, 5-methyl-7-bromo 5H-indolo[3,2-b]quinoline, reference compound] | – | – | – | – | pest or weed control at 400 µg/mL [1, 6]: 0%; bactericidal activity against rice sheath blight ([1]; live pot test, result in words, summary of Table 5 (400mg/L)): no activity; inhibition at 500 µg/mL [2, 8]: 15.1 ± 2%; inhibition at 500 µg/mL [3, 9]: 10.5 ± 3%; inhibition at 500 µg/mL [4, 10]: 10.2 ± 1.8%
Cc1ccc(S(=O)(=O)n2c3ccccc3c3c2cc2cc(C)ccc2[n+]3C)cc1 [Example 9] | 70 | 23.8 ± 3.5 | 19.1 ± 0.1 | 23.1 ± 0.9 | pest or weed control at 400 µg/mL [1, 7]: > 50%
CN(C)CC(C)(C)CNc1c2ccccc2[n+](C)c2c1[nH]c1ccccc12 [Example 39] | – | 25.4 ± 3.8 | 30.1 ± 0.2 | 28.9 ± 2.1 | pest or weed control at 400 µg/mL [1, 6]: 25 ± 5%
Cc1ccc(S(=O)(=O)n2c3ccccc3c3c2cc2ccc(Cl)cc2[n+]3C)cc1 [Example 17] | 40 | 30.2 ± 1.7 | 23.5 ± 2.1 | 33.1 ± 1.1 | –
Cc1ccc(S(=O)(=O)n2c3ccccc3c3c2cc2ccccc2[n+]3Cc2ccccc2)cc1 [Example 21] | 40 | 41.4 ± 3.9 | 32.3 ± 1.8 | 35.9 ± 4 | TMV activity [2]: better TMV activity than the ribavirin
